Experiment: clearance of hydroxyl free radicals, orthophenanthroline Fe2+ oxidation method
Type: biochemical
Design: Clearance rate of •OH (d): unit not given here
Details: for Clearance rate of •OH (d): n = 5
Text: Materials and methods-test drug and reagent: Extract of black soybean hull A (containing cyanidin 12.52%, catechin 13.50%, and OPC 54.01%). Orthophenanthroline, hydrogen peroxide, ascorbic acid (VC), and FeSO4.7H2O were all analytical pure reagents made in China. Materials and Methods-instruments: An LSY constant temperature water bath was obtained from a Beijing medical instrument manufacturer, and a UV-2000 spectrophotometer was from […], Shanghai Instrument Co., Ltd.). Test method-reagent preparation: Reagents included 0.1% H2O[…]), a 5 mmol/L anhydrous ethanol solution of orthophenanthroline, 0.75 mmol/L FeSO4, a 0.2 mmol/L phosphoric acid buffer solution (PBS; pH=7.4), BSHE A, prepared with double distilled water and diluted to concentrations of 0.5, 0.25, 0.125, and 0.0625 mg/ml, and ascorbic acid, prepared at concentrations of 4, 2, 1, and 0.5 mg/ml with double distilled water. Test method-measuring hydroxyl free radicals: The clearing of hydroxyl free radicals was tested using an orthophenanthrolin Fe^2+ oxidation method to further evaluate the anti-oxidation capacity of BSHE A. (1) 2 ml PBS, the test drug at the concentrations listed above, and 1 ml ascorbic acid were sequentially added to a disposable 10 ml polyethylene test tube and shaken. 0.35 ml of 5 mmol/L orthophenanthroline solution and 1 ml 0.75 mmol/L FeSO4 were added and mixed fully. 1 ml of 0.1% H2O2 was added, and the tube was vibrated for 1 minute. […] (2) The 1 ml of test drug in (1) was replaced with 1 ml deionized water, while the other conditions were the same as in (1). The absorbency value Ab was measured. (3) The 1 ml H2O2 in (2) was replaced with 1 ml deionized water, while the other conditions were the same as in (2). The absorbency value Ac was measured. (4) The clearance rate (d) of .OH by the test drug and the positive comparison was calculated according to the following equation: [formula] The total volume of reaction was 5.35 ml. The final concentrations of ascorbic acid thus were 0.748 mg/ml, 0.374 mg/ml, 0.187 mg/ml, and 0.093 mg/ml, while the final concentrations of BSHE A were 0.093 mg/ml, 0.047 mg/ml, 0.023 mg/ml, and 0.012 mg/ml. Five samples were tested in each group. The clearance rate of .OH was calculated individually and then average values were calculated.

In the case of `O=C1O[C@H]([C@@H](O)CO)C(O)=C1O` [ascorbic acid], the “Clearance rate of •OH (d)” value (final concentration 0.093 mg/ml) is reported as 0.212 ± 2.47, the “Clearance rate of •OH (d)” value (final concentration 0.187 mg/ml) is reported as 4.21 ± 1.32 and the “Clearance rate of •OH (d)” value (final concentration 0.374 mg/ml) is reported as 50.32 ± 4.29. For the same compound, the “Clearance rate of •OH (d)” value (final concentration 0.748 mg/ml) was 91.29 ± 3.26 and the “IC50 of hydroxyl free radical clearance” value (from fitted line) was 401.4 µg/mL.
